# Experiments:
# Experiment in all cases: MIC by broth dilution (NCCLS M7-A2)
# Type in all cases: cell-based
# Conditions in all cases: 90% growth inhibition
# S. pyogenes M = system: S. pyogenes M
# Source text: (§1) MIC levels for all compound were determinated on panel of susceptible, and resistant Gram positive bacterial strains (S. aureus, S. pneumoniae and S. pyogenes) and on Gram negative strains (E. coli, H. influenzae, […], M. catarrhalis).
# [1] = system: M. catarrhalis ATCC 23246
# Source text: as §1
# S. pyogenes iMLS = system: S. pyogenes iMLS
# Source text: as §1
# E. faecalis ATCC 29212 = system: E. faecalis ATCC 29212
# Source text: as §1
# S. pneumoniae = system: S. pneumoniae
# Source text: as §1
# E. coli ATCC 25922 = system: E. coli ATCC 25922
# Source text: as §1
# H. influenzae ATCC 49247 = system: H. influenzae ATCC 49247
# Source text: as §1
# S. pyogenes = system: S. pyogenes
# Source text: as §1
# S. aureus ATCC 13709 = system: S. aureus ATCC 13709
# Source text: as §1
compound,measurement,setting,value
"9-Deoxo-9-dihydro-9a-N-[N′-(β-cyanoethyl)-N′-(2,4-dichlorophenyl)carbamoyl-γ-aminopropyl]-9a-aza-9a-homoerithromycin A [Example 39]",MIK,S. pyogenes M,64 µg/mL
same,MIK,[1],16 µg/mL
same,MIK,S. pyogenes iMLS,32 µg/mL
same,MIK,E. faecalis ATCC 29212,>64 µg/mL
same,MIK,S. pneumoniae,≦0.125 μg/ml
same,MIK,E. coli ATCC 25922,>64 µg/mL
same,MIK,H. influenzae ATCC 49247,16 µg/mL
same,MIK,S. pyogenes,≦0.125 μg/ml
same,MIK,S. aureus ATCC 13709,1 µg/mL
"9-Deoxo-9-dihydro-9a-N-[N′-(β-cyanoethyl)-N′-(3,4,5-trimethoxyphenyl)carbamoyl-γ-aminopropyl]-9a-aza-9a-homoerithromycin A [Example 37]",MIK,S. pyogenes M,8 µg/mL
same,MIK,[1],1 µg/mL
same,MIK,S. pyogenes iMLS,47 µg/mL
same,MIK,E. faecalis ATCC 29212,16 µg/mL
same,MIK,S. pneumoniae,≦0.125 μg/ml
same,MIK,E. coli ATCC 25922,16 µg/mL
same,MIK,H. influenzae ATCC 49247,2 µg/mL
same,MIK,S. pyogenes,≦0.125 μg/ml
same,MIK,S. aureus ATCC 13709,4 µg/mL
9-Deoxo-9-dihydro-9a-N-[N′-(β-cyanoethyl)-N′-(β-phenylethyl)thiocarbamoyl-γ-aminopropyl]-9a-aza-9a-homoerithromycin A [Example 34],MIK,S. pyogenes M,8 µg/mL
same,MIK,[1],1 µg/mL
same,MIK,S. pyogenes iMLS,4 µg/mL
same,MIK,E. faecalis ATCC 29212,16 µg/mL
same,MIK,S. pneumoniae,≦0.125 μg/ml
same,MIK,E. coli ATCC 25922,32 µg/mL
same,MIK,H. influenzae ATCC 49247,2 µg/mL
same,MIK,S. pyogenes,≦0.125 μg/ml
same,MIK,S. aureus ATCC 13709,1 µg/mL
9-Deoxo-9-dihydro-9a-N-[N′-(β-cyanoethyl)-N′-benzylcarbamoyl-γ-aminopropyl]-9a-aza-9a-homoerithromycin A [Example 29],MIK,S. pyogenes M,64 µg/mL
same,MIK,[1],4 µg/mL
same,MIK,S. pyogenes iMLS,16 µg/mL
same,MIK,E. faecalis ATCC 29212,>64 µg/mL
same,MIK,S. pneumoniae,≦0.125 μg/ml
same,MIK,E. coli ATCC 25922,>64 µg/mL
same,MIK,H. influenzae ATCC 49247,32 µg/mL
same,MIK,S. pyogenes,≦0.125 μg/ml
same,MIK,S. aureus ATCC 13709,2 µg/mL
9-Deoxo-9-dihydro-9a-N-[N′-(β-cyanoethyl)-N′-isopropylcarbamoyl-γ-aminopropyl]-9a-aza-9a-homorithromycin A [Example 27],MIK,S. pyogenes M,32 µg/mL
same,MIK,[1],0.5 µg/mL
same,MIK,S. pyogenes iMLS,8 µg/mL
same,MIK,E. faecalis ATCC 29212,32 µg/mL
same,MIK,S. pneumoniae,≦0.125 μg/ml
same,MIK,E. coli ATCC 25922,16 µg/mL
same,MIK,H. influenzae ATCC 49247,32 µg/mL
same,MIK,S. pyogenes,≦0.125 μg/ml
same,MIK,S. aureus ATCC 13709,4 µg/mL
9-Deoxo-9-dihydro-9a-N-{N′-(β-cyanoethyl)-N′-[1-(1-naphtyl)ethyl]carbamoyl-γ-aminopropyl}-9a-aza-9a-homoerithromycin A [Example 36],MIK,S. pyogenes M,16 µg/mL
same,MIK,[1],4 µg/mL
same,MIK,S. pyogenes iMLS,8 µg/mL
same,MIK,E. faecalis ATCC 29212,16 µg/mL
same,MIK,S. pneumoniae,≦0.125 μg/ml
same,MIK,E. coli ATCC 25922,64 µg/mL
same,MIK,H. influenzae ATCC 49247,2 µg/mL
same,MIK,S. pyogenes,≦0.125 μg/ml
same,MIK,S. aureus ATCC 13709,2 µg/mL
"CC[C@H]1OC(=O)[C@H](C)[C@@H](O[C@H]2C[C@@](C)(OC)[C@@H](O)[C@H](C)O2)[C@H](C)[C@@H](O[C@@H]2O[C@H](C)C[C@H](N(C)C)[C@H]2O)[C@](C)(O)C[C@@H](C)C(=O)[C@H](C)[C@@H](O)[C@]1(C)O [Er, erythromycin A, reference compound]",MIK,S. pyogenes M,8 µg/mL
same,MIK,S. pyogenes iMLS,>64 µg/mL
same,MIK,E. faecalis ATCC 29212,1 µg/mL
same,MIK,E. coli ATCC 25922,32 µg/mL
same,MIK,H. influenzae ATCC 49247,2 µg/mL
same,MIK,S. pyogenes,0.25 µg/mL
"CC[C@H]1OC(=O)[C@H](C)[C@@H](O[C@H]2C[C@@](C)(OC)[C@@H](O)[C@H](C)O2)[C@H](C)[C@@H](O[C@@H]2O[C@H](C)C[C@H](N(C)C)[C@H]2O)[C@](C)(O)C[C@@H](C)CN(CCCNC(=O)NC(C)C)[C@H](C)[C@@H](O)[C@]1(C)O [Example 1, 9-Deoxo-9-dihydro-9a-N-(N′-isopropylcarbainoyl-γ-aminopropyl)-9a-aza-9a-homoerithromycin A]",MIK,S. pyogenes M,32 µg/mL
same,MIK,[1],0.5 µg/mL
same,MIK,S. pyogenes iMLS,8 µg/mL
same,MIK,E. faecalis ATCC 29212,32 µg/mL
same,MIK,S. pneumoniae,≦0.125 μg/ml
same,MIK,E. coli ATCC 25922,16 µg/mL
same,MIK,H. influenzae ATCC 49247,32 µg/mL
same,MIK,S. pyogenes,≦0.125 μg/ml
same,MIK,S. aureus ATCC 13709,2 µg/mL
"CC[C@H]1OC(=O)[C@H](C)[C@@H](O[C@H]2C[C@@](C)(OC)[C@@H](O)[C@H](C)O2)[C@H](C)[C@@H](O[C@@H]2O[C@H](C)C[C@H](N(C)C)[C@H]2O)[C@](C)(O)C[C@@H](C)CN(CCCNC(=O)Nc2cccc3ccccc23)[C@H](C)[C@@H](O)[C@]1(C)O [Example 2, 9-Deoxo-9-dihydro-9a-N-[N′-(1-naphtyl)carbamoyl-γ-aminopropyl]-9a-aza-9a-homoerithromycin A]",MIK,S. pyogenes M,4 µg/mL
same,MIK,[1],0.25 µg/mL
same,MIK,S. pyogenes iMLS,2 µg/mL
same,MIK,E. faecalis ATCC 29212,4 µg/mL
same,MIK,S. pneumoniae,≦0.125 μg/ml
same,MIK,E. coli ATCC 25922,8 µg/mL
same,MIK,H. influenzae ATCC 49247,1 µg/mL
same,MIK,S. pyogenes,≦0.125 μg/ml
same,MIK,S. aureus ATCC 13709,0.5 µg/mL
"CC[C@H]1OC(=O)[C@H](C)[C@@H](O[C@H]2C[C@@](C)(OC)[C@@H](O)[C@H](C)O2)[C@H](C)[C@@H](O[C@@H]2O[C@H](C)C[C@H](N(C)C)[C@H]2O)[C@](C)(O)C[C@@H](C)CN(CCCNC(=O)NCc2ccccc2)[C@H](C)[C@@H](O)[C@]1(C)O [Example 3, 9-Deoxo-9-dihydro-9a-N-(N′-benzylcarbamoyl-γ-aminopropyl)-9a-aza-9a-homoerithromycin A]",MIK,S. pyogenes M,8 µg/mL
same,MIK,[1],1 µg/mL
same,MIK,S. pyogenes iMLS,4 µg/mL
same,MIK,E. faecalis ATCC 29212,16 µg/mL
same,MIK,S. pneumoniae,≦0.125 μg/ml
same,MIK,E. coli ATCC 25922,16 µg/mL
same,MIK,H. influenzae ATCC 49247,2 µg/mL
same,MIK,S. pyogenes,≦0.125 μg/ml
same,MIK,S. aureus ATCC 13709,0.5 µg/mL
"CC[C@H]1OC(=O)[C@H](C)[C@@H](O[C@H]2C[C@@](C)(OC)[C@@H](O)[C@H](C)O2)[C@H](C)[C@@H](O[C@@H]2O[C@H](C)C[C@H](N(C)C)[C@H]2O)[C@](C)(O)C[C@@H](C)CN(CCCNC(=S)NCc2ccccc2)[C@H](C)[C@@H](O)[C@]1(C)O [Example 4, 9-Deoxo-9-dihydro-9a-N-(N′-benzylthiocarbamoyl-γ-aminopropyl)-9a-aza-9a-homoerithromycin A]",MIK,S. pyogenes M,4 µg/mL
same,MIK,[1],1 µg/mL
same,MIK,S. pyogenes iMLS,2 µg/mL
same,MIK,E. faecalis ATCC 29212,8 µg/mL
same,MIK,S. pneumoniae,≦0.125 μg/ml
same,MIK,E. coli ATCC 25922,16 µg/mL
same,MIK,H. influenzae ATCC 49247,2 µg/mL
same,MIK,S. pyogenes,≦0.125 μg/ml
same,MIK,S. aureus ATCC 13709,2 µg/mL
CC[C@H]1OC(=O)[C@H](C)[C@@H](O[C@H]2C[C@@](C)(OC)[C@@H](O)[C@H](C)O2)[C@H](C)[C@@H](O[C@@H]2O[C@H](C)C[C@H](N(C)C)[C@H]2O)[C@](C)(O)C[C@@H](C)CN(CCCNC(=S)Nc2cccc3ccccc23)[C@H](C)[C@@H](O)[C@]1(C)O [Example 5],MIK,S. pyogenes M,4 µg/mL
same,MIK,[1],2 µg/mL
same,MIK,S. pyogenes iMLS,4 µg/mL
same,MIK,E. faecalis ATCC 29212,4 µg/mL
same,MIK,S. pneumoniae,≦0.125 μg/ml
same,MIK,E. coli ATCC 25922,8 µg/mL
same,MIK,H. influenzae ATCC 49247,2 µg/mL
same,MIK,S. pyogenes,≦0.125 μg/ml
same,MIK,S. aureus ATCC 13709,2 µg/mL
"CC[C@H]1OC(=O)[C@H](C)[C@@H](O[C@H]2C[C@@](C)(OC)[C@@H](O)[C@H](C)O2)[C@H](C)[C@@H](O[C@@H]2O[C@H](C)C[C@H](N(C)C)[C@H]2O)[C@](C)(O)C[C@@H](C)CN(CCCNC(=O)Nc2ccccc2C(F)(F)F)[C@H](C)[C@@H](O)[C@]1(C)O [Example 6, 9-Deoxo-9-dihydro-9a-N-[N′-(2-trifluoromethyl)phenylcarbamoyl-γ-aminopropyl]-9a-aza-9a-homoerithromycin A]",MIK,S. pyogenes M,32 µg/mL
same,MIK,[1],8 µg/mL
same,MIK,S. pyogenes iMLS,8 µg/mL
same,MIK,E. faecalis ATCC 29212,64 µg/mL
same,MIK,S. pneumoniae,≦0.125 μg/ml
same,MIK,E. coli ATCC 25922,32 µg/mL
same,MIK,H. influenzae ATCC 49247,16 µg/mL
same,MIK,S. pyogenes,≦0.125 μg/ml
same,MIK,S. aureus ATCC 13709,2 µg/mL
"CC[C@H]1OC(=O)[C@H](C)[C@@H](O[C@H]2C[C@@](C)(OC)[C@@H](O)[C@H](C)O2)[C@H](C)[C@@H](O[C@@H]2O[C@H](C)C[C@H](N(C)C)[C@H]2O)[C@](C)(O)C[C@@H](C)CN(CCCNC(=S)NCCCc2ccccc2)[C@H](C)[C@@H](O)[C@]1(C)O [Example 7, 9-Deoxo-9-dihydro-9a-N-[N′-(3-phenylpropyl)thiocarbamoyl-γ-aminopropyl]-9a-aza-9a-homoerithromycin A]",MIK,S. pyogenes M,8 µg/mL
same,MIK,[1],1 µg/mL
same,MIK,S. pyogenes iMLS,4 µg/mL
same,MIK,E. faecalis ATCC 29212,16 µg/mL
same,MIK,S. pneumoniae,≦0.125 μg/ml
same,MIK,E. coli ATCC 25922,16 µg/mL
same,MIK,H. influenzae ATCC 49247,2 µg/mL
same,MIK,S. pyogenes,≦0.125 μg/ml
same,MIK,S. aureus ATCC 13709,1 µg/mL
"CC[C@H]1OC(=O)[C@H](C)[C@@H](O[C@H]2C[C@@](C)(OC)[C@@H](O)[C@H](C)O2)[C@H](C)[C@@H](O[C@@H]2O[C@H](C)C[C@H](N(C)C)[C@H]2O)[C@](C)(O)C[C@@H](C)CN(CCCNC(=O)NCCc2ccccc2)[C@H](C)[C@@H](O)[C@]1(C)O [Example 8, 9-Deoxo-9-dihydro-9a-N-[N′-(β-phenylethyl)carbamoyl-γ-aminopropyl]-9a-aza-9a-homoerithromycin A]",MIK,S. pyogenes M,8 µg/mL
same,MIK,[1],1 µg/mL
same,MIK,S. pyogenes iMLS,4 µg/mL
same,MIK,E. faecalis ATCC 29212,16 µg/mL
same,MIK,S. pneumoniae,≦0.125 μg/ml
same,MIK,E. coli ATCC 25922,32 µg/mL
same,MIK,H. influenzae ATCC 49247,2 µg/mL
same,MIK,S. pyogenes,≦0.125 μg/ml
same,MIK,S. aureus ATCC 13709,1 µg/mL

# From US7342000B2, “Semisynthetic macrolide antibiotics of the azalide series” (GlaxoSmithKline istrazivacki center Zagreb, priority 2002, dated 2008)
